From the supplement of paper PMC10733146

Legend:
Assay in all cases: viability relative to DMSO control (fraction); higher = less drug effect (more viable cells)
Details in all cases: 48 h
[1] = test system: primary ALL patient cells (S088)
How it was run: (§1)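 Compounds were pre-plated at five concentrations, one well each, in 384-well plates, and primary mononuclear tumour cells were plated on them at 4 × 10^4 cells per well. The cells, fresh or cryopreserved, had been Ficoll-isolated from blood or bone marrow or taken from processed lymph node. After 48 h at 37 °C and 5% CO2 in RPMI-1640 with penicillin/streptomycin, L-glutamine and human serum, viability was read as CellTiter-Glo luminescence relative to the median of 16 inner DMSO wells.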

[2] = test system: primary AML patient cells (S025)
How it was run: as §1

[3] = test system: primary FL patient cells (S087)
How it was run: as §1

[4] = test system: primary AML patient cells (S002)
How it was run: as §1

[5] = test system: primary AML patient cells (S017)
How it was run: as §1

[6] = test system: primary AML patient cells (S060)
How it was run: as §1

[7] = test system: primary AML patient cells (S079)
How it was run: as §1

[8] = test system: primary FL patient cells (S022)
How it was run: as §1

[9] = test system: primary AML patient cells (S019)
How it was run: as §1

[10] = test system: primary AML patient cells (S091)
How it was run: as §1

[11] = test system: primary MCL patient cells (S053)
How it was run: as §1

[12] = test system: primary AML patient cells (S071)
How it was run: as §1

[13] = test system: primary DLBCL patient cells (S082)
How it was run: as §1

[14] = test system: primary AML patient cells (S072)
How it was run: as §1

[15] = test system: primary AML patient cells (S009)
How it was run: as §1

[16] = test system: primary AML patient cells (S089)
How it was run: as §1

[17] = test system: primary ALL patient cells (S048)
How it was run: as §1

[18] = test system: primary AML patient cells (S021)
How it was run: as §1

[19] = test system: primary B-PLL patient cells (S016)
How it was run: as §1

[20] = test system: primary AML patient cells (S055)
How it was run: as §1

C/C=C1\NC(=O)[C@H]2CSSCC/C=C/[C@H](CC(=O)N[C@H](C(C)C)C(=O)N2)OC(=O)[C@H](C(C)C)NC1=O [Romidepsin]
viability ([1]; 0.00032 µM): 0.851
viability ([1]; 0.0016 µM): 0.577
viability ([1]; 0.008 µM): 0.123
viability ([1]; 0.04 µM): 0.0858
viability ([1]; 0.2 µM): 0.0855
viability ([2]; 0.00032 µM): 0.889
viability ([2]; 0.0016 µM): 0.812
viability ([2]; 0.008 µM): 0.299
viability ([2]; 0.04 µM): 0.381
viability ([2]; 0.2 µM): 0.441
viability ([3]; 0.00032 µM): 0.978
viability ([3]; 0.0016 µM): 0.911
viability ([3]; 0.008 µM): 0.642
viability ([3]; 0.04 µM): 0.498
viability ([3]; 0.2 µM): 0.527
viability ([4]; 0.00032 µM): 1.12
viability ([4]; 0.0016 µM): 0.73
viability ([4]; 0.008 µM): 0.283
viability ([4]; 0.04 µM): 0.265
viability ([4]; 0.2 µM): 0.287
viability ([5]; 0.00032 µM): 1.02
viability ([5]; 0.0016 µM): 0.866
viability ([5]; 0.008 µM): 0.29
viability ([5]; 0.04 µM): 0.302
viability ([5]; 0.2 µM): 0.332
viability ([6]; 0.00032 µM): 1.07
viability ([6]; 0.0016 µM): 1.05
viability ([6]; 0.008 µM): 0.464
viability ([6]; 0.04 µM): 0.0458
viability ([6]; 0.2 µM): 0.045
viability ([7]; 0.00032 µM): 0.978
viability ([7]; 0.0016 µM): 0.85
viability ([7]; 0.008 µM): 0.269
viability ([7]; 0.04 µM): 0.31
viability ([7]; 0.2 µM): 0.304
viability ([8]; 0.00032 µM): 0.968
viability ([8]; 0.0016 µM): 0.84
viability ([8]; 0.008 µM): 0.543
viability ([8]; 0.04 µM): 0.263
viability ([8]; 0.2 µM): 0.206
viability ([9]; 0.00032 µM): 1
viability ([9]; 0.0016 µM): 0.996
viability ([9]; 0.008 µM): 0.52
viability ([9]; 0.04 µM): 0.417
viability ([9]; 0.2 µM): 0.434
viability ([10]; 0.00032 µM): 0.803
viability ([10]; 0.0016 µM): 0.715
viability ([10]; 0.008 µM): 0.169
viability ([10]; 0.04 µM): 0.116
viability ([10]; 0.2 µM): 0.117
viability ([11]; 0.00032 µM): 0.951
viability ([11]; 0.0016 µM): 0.191
viability ([11]; 0.008 µM): 0.0849
viability ([11]; 0.04 µM): 0.0845
viability ([11]; 0.2 µM): 0.0907
viability ([12]; 0.00032 µM): 0.887
viability ([12]; 0.0016 µM): 0.626
viability ([12]; 0.008 µM): 0.209
viability ([12]; 0.04 µM): 0.187
viability ([12]; 0.2 µM): 0.182
viability ([13]; 0.00032 µM): 1.02
viability ([13]; 0.0016 µM): 0.878
viability ([13]; 0.008 µM): 0.111
viability ([13]; 0.04 µM): 0.0272
viability ([13]; 0.2 µM): 0.029
viability ([14]; 0.00032 µM): 0.97
viability ([14]; 0.0016 µM): 0.671
viability ([14]; 0.008 µM): 0.243
viability ([14]; 0.04 µM): 0.192
viability ([14]; 0.2 µM): 0.187
viability ([15]; 0.00032 µM): 1.02
viability ([15]; 0.0016 µM): 0.614
viability ([15]; 0.008 µM): 0.308
viability ([15]; 0.04 µM): 0.24
viability ([15]; 0.2 µM): 0.199
viability ([16]; 0.00032 µM): 0.932
viability ([16]; 0.0016 µM): 0.979
viability ([16]; 0.008 µM): 0.302
viability ([16]; 0.04 µM): 0.0361
viability ([16]; 0.2 µM): 0.0536
viability ([17]; 0.00032 µM): 0.791
viability ([17]; 0.0016 µM): 0.184
viability ([17]; 0.008 µM): 0.0722
viability ([17]; 0.04 µM): 0.0497
viability ([17]; 0.2 µM): 0.0502
viability ([18]; 0.00032 µM): 0.88
viability ([18]; 0.0016 µM): 0.789
viability ([18]; 0.008 µM): 0.353
viability ([18]; 0.04 µM): 0.269
viability ([18]; 0.2 µM): 0.222
viability ([19]; 0.00032 µM): 0.91
viability ([19]; 0.0016 µM): 0.807
viability ([19]; 0.008 µM): 0.0756
viability ([19]; 0.04 µM): 0.055
viability ([19]; 0.2 µM): 0.073
viability ([20]; 0.00032 µM): 0.981
viability ([20]; 0.0016 µM): 0.941
viability ([20]; 0.008 µM): 0.524
viability ([20]; 0.04 µM): 0.145
viability ([20]; 0.2 µM): 0.072
